Consider four molecules from patent US8507411B2, “Neoglycorandomization and digitoxin analogs” (priority 2004, dated 2013).

What all share (assay type): cell-based, human
One test concerns NCI/ADR-RES. The experiment in a line: cells. In a few lines: (§1)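 Calcein fluorescence (485/535 nm) reports intracellular esterase activity of surviving cells after 72 h compound treatment. Each IC50 derives from at least six dose-response runs over a five-point two-fold dilution series.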
In the next test the test system is SF-268. As to the kind of experiment: cells. In a few lines: as §1
A further test has as its system SK-OV-3. The experiment in a line: cells. The method in brief:
as §1

The subject of the next test is NCI-H460. The experiment in a line: Cell titer-glo cytotoxicity assay, NCI-H460. The source says:
(§2) FIG. 7 is a graphical summary of the results of the IC50 data from cytotoxicity assays. […] In the assay, live cells are quantified by measuring the luminescent signal resulting from the reaction between cellular ATP and luciferin to form oxyluciferin. The IC50 value for each compound represents at least four replicates of dose-response experiments conducted over six concentrations at two-fold dilutions.
(§3) The anticancer activities of ten panel analogues (3a-c,e,f and 4a-c,e,f) and digitoxin (1) were assessed using a high-throughput cytotoxicity assay on four human cancer cell lines, (FIG. 7) representing lung, colorectal, and ovarian carcinomas, as well as NCI/ADR-RES, a drug-resistant ovarian carcinoma line (For years, NCI/ADR-RES cells have been misidentified as drug-resistant MCF-7 breast adenocarcinoma cells, but recently this line has been shown definitively to be a drug-resistant line derived from OVCAR-8 ovarian adenocarcinoma cells. Liscovitch, M. et al., Cancer Lett. (2007) 245, 350-352.
(§4) All cell lines were maintained as previously reported (Langenhan, J. M. et al., Proc. Natl. Acad. Sci. (2005) 102, 12305-12310.) Cells were harvested by trypsinization using 0.25% trypsin and 0.1% EDTA and then counted in a Cellometer Auto T4 cell counter (Nexcelom, inc), before dilution for assay plating. […] Each plate was read for luminescence. […]
(In ATP-based viability assays light output follows the ATP content of the culture.)

The next test concerns HT-29. The experiment in a line: Cell titer-glo cytotoxicity assay, HT-29. The conditions noted are these: HT-29, Cell titer-glo.
Description: as §2, §3, §4

The mark [1] stands for this setting: NCI/ADR-RES cells, read-out: IC50, NCI/ADR-RES.
Where [2] appears, read: SF-268 cells, read-out: IC50, SF-268.
The mark [3] stands for this setting: SK-OV-3 cells, read-out: IC50, SK-OV-3.

Where two headings read alike, the source gives them in different places.

In the case of `C[C@H]1O[C@@H](O[C@H]2[C@@H](O)C[C@H](O[C@H]3[C@@H](O)C[C@H](O[C@H]4CC[C@@]5(C)[C@H](CC[C@@H]6[C@@H]5CC[C@]5(C)[C@@H](C7=CC(=O)OC7)CC[C@]65O)C4)O[C@@H]3C)O[C@@H]2C)C[C@H](O)[C@@H]1O` [digitoxin], the IC50 was 220 nM in the test with NCI/ADR-RES (Homo sapiens, NCI/ADR-RES, read-out: IC50, NCI/ADR-RES); 1500 nM in the test on SF-268 (Homo sapiens, SF-268, read-out: IC50, SF-268); 700 nM in the test with SK-OV-3 (Homo sapiens, SK-OV-3, read-out: IC50, SK-OV-3).
Regarding `CON([C@H]1CC[C@@]2(C)[C@H](CC[C@@H]3[C@@H]2CC[C@]2(C)[C@@H](C4=CC(=O)OC4)CC[C@]32O)C1)[C@H]1OC[C@H](O)[C@@H](O)[C@@H]1O` [23β, L-xyloside], the IC50 in the test with NCI/ADR-RES (setting [1]) was 138 nM; in the test with SF-268 (setting [2]) it was 490 nM; in the test with SK-OV-3 (setting [3]) it was 220 nM; in the test on NCI-H460, 55 nM; with HT-29 it was 66 nM.
As to `CON([C@H]1CC[C@@]2(C)[C@H](CC[C@@H]3[C@@H]2CC[C@]2(C)[C@@H](C4=CC(=O)OC4)CC[C@]32O)C1)[C@@H]1O[C@H](CO)[C@@H](O)[C@H](O)[C@@H]1O` [27β, D-mannoside], the IC50 in the test on NCI/ADR-RES (NCI/ADR-RES, 72 h, calcein AM, read-out: IC50) was 100 ± 10 nM; in the test on SF-268 (setting [2]), 2200 nM; in the test on SK-OV-3 (setting [3]), 800 nM.
As to `CON([C@H]1CC[C@@]2(C)[C@H](CC[C@@H]3[C@@H]2CC[C@]2(C)[C@@H](C4=CC(=O)OC4)CC[C@]32O)C1)[C@H]1OC[C@H](O)[C@H](O)[C@@H]1O` [5β, L-riboside], the IC50 is 32 nM with NCI/ADR-RES (setting [1]), 230 nM in the test on SF-268 (setting [2]), 45 nM in the test on SK-OV-3 (setting [3]) and 80 nM in the test on HT-29.
